# Experimental data as given in patent publication US20260227411A1, “CONJUGATED METABOLITES FOR CANCER DETECTION AND TREATMENT” (VANDERBILT UNIVERSITY, priority 2023, published 2026).
# Tests used:
# dysplastic organoids [1] = assay: Metabolite rescue of A939572-treated dysplastic organoids; assay type: cell-based, mouse
# Method: For metabolic enzyme inhibitor treatment, the media was switched to metabolic enzyme inhibitor containing media at one day after splitting the mouse gastric organoids and cultured for 3 days. For metabolite treatment, mouse gastric organoids were treated 100 nM A939572 with metabolites (cis-11-eicosenoic acid or cis-7,10,13,16-docosatetraenoic acid) at one day after splitting the mouse gastric organoids and cultured for 3 days. The EVOS M7000 inverted microscope (Thermo Fisher Scientific) or JuLI™ stage, a Real-Time Cell History Recorder (NanoEntek) were used to capture phase contrast images of the organoids or monitor the growth and morphological changes of the organoids in real-time. Quantitative data analyses were performed using at least 3 wells of images at 4× magnification. For measurement of organoid growth, phase contrast images of organoids were captured over time and measured at the widest diameters using the ZEN 3.3 blue edition (Zeiss) measuring tool. For Calcein AM/Ethidium-1(EthD-1) staining, mouse gastric organoids were cultured for 1 day after splitting and transferred to microfluidic-based flowchips (Protein Fluidics) that can enable 3D cell-based assay. The media containing 100 nM A939572 with metabolites (cis-11-eicosenoic acid or cis-7,10,13,16-docosatetraenoic acid) was added to the top of the organoids and cultured for 3 days. Then, the organoids were stained with […] (L3224, Thermo Fisher Scientific) for 30 min at 37° C. Confocal imaging was performed on a Zeiss LSM 880 using a 20× magnification. To prepare Formalin-Fixed, Paraffin-Embedded (FFPE) organoid sections, whole mouse or human gastric organoids in Matrigel™ were fixed in 4% PFA for 30 min at RT and washed with 1×PBS twice. The organoids were embedded in Epredia™ HistoGel™ (HG-4000-012, Thermo Fisher Scientific) and processed according to a standard histological protocol for paraffin embedding.
# To address how and why dysplastic cells utilize the SCD-dependent FA desaturation, experiments examined the functions of two different unsaturated long-chain FAs, MUFA (FFA 20:1) and PUFA (FFA 22:4), which were abundant in dysplasia. Two metabolites, Eicosenoic acid (EA; 20:1n9, MUFA) and Docosatetraenoic acid (DA; 22:4n6, PUFA) (FIG. 7A) were selected based on the enhanced fragment ions detected from imaging mass spectrometry (FIG. 3E). Dysplastic organoids were co-treated with A939572, in combination with either EA or DA for 3 days. […] To determine the subcellular localization of EA in dysplastic cells, EA was conjugated with NBD, a green-fluorescent compound (NBD-EA) (FIG. 7B and FIG. 8A-B). […] Since the EA is imported into mitochondria, experiments further examined whether the EA undergoes FA oxidation which occurs in the mitochondrial aerobic metabolism and produces energy substrate for the TCA cycle.
# normal gastric organoids = assay: A939572 treatment of normal gastric organoids; assay type: cell-based, mouse; conditions: 100 nM A939572
# Method: Mouse gastric organoids were established from corpus of untreated or Gif-rtTA; TetO-Cre; KrasG12D (GCK) mouse stomachs as described previously. The GCK mouse gastric organoids were cultured in ECM Gel (E1270, Sigma-Aldrich) or Cultrex® Reduced Growth Factor Basement Membrane Extract, Type R1 (3433-005-R1, R&D systems) with Mouse IntestiCult medium (06005, StemCell Technology) supplemented with 1% of penicillin/streptomycin (2441832, Gibco) in 48-well plates. The medium was replaced every 3 days and organoids were split every 3 to 5 days. Human gastric organoids were previously established from patients who underwent curative gastrectomy as described. […]
# (§1) For metabolic enzyme inhibitor treatment, the media was switched to metabolic enzyme inhibitor containing media at one day after splitting the mouse gastric organoids and cultured for 3 days. […] Quantitative data analyses were performed using at least 3 wells of images at 4× magnification. For measurement of organoid growth, phase contrast images of organoids were captured over time and measured at the widest diameters using the ZEN 3.3 blue edition (Zeiss) measuring tool. […]
# dysplastic organoids [2] = assay: Metabolic enzyme inhibitor treatment of mouse dysplastic organoids; assay type: cell-based
# Method: Mouse gastric organoids were established from corpus of untreated or Gif-rtTA; TetO-Cre; KrasG12D (GCK) mouse stomachs as described previously. The GCK mouse gastric organoids were cultured in ECM Gel (E1270, Sigma-Aldrich) or Cultrex® Reduced Growth Factor Basement Membrane Extract, Type R1 (3433-005-R1, R&D systems) with Mouse IntestiCult medium (06005, StemCell Technology) supplemented with 1% of penicillin/streptomycin (2441832, Gibco) in 48-well plates. The medium was replaced every 3 days and organoids were split every 3 to 5 days. Human gastric organoids were previously established from patients who underwent curative gastrectomy as described. The human gastric organoids were cultured in Corning™ Matrigel™ Membrane Matrix (356231, Thermo Fisher Scientific) with Human IntestiCult medium (06010, StemCell Technology) supplemented with 1% of penicillin/streptomycin, 0.2% of MycoZap (VZA-2031, Lonza) in a 48-well plate.
# as §1, with “containing media at one day after splitting the mouse gastric organoids and cultured for 3 days. For metabolite treatment, mouse gastric organoids were treated 100 nM A939572 with metabolites (cis-11-eicosenoic acid or cis-7,10,13,16-docosatetraenoic acid) at one” for “containing media at one”
# To determine the role of metabolic switch in dysplastic cells, expression levels of key metabolic enzymes, important for glycolysis or FA metabolism, were examined using gastric organoids established from each stage of GCK mice (FIG. 4A). […] The functional roles of metabolic pathways were assessed using key enzyme inhibitors in dysplastic organoids which highly expressed SCD1 (FIG. 4E). […]
# [3] = test system: human gastric organoid lines; assay: A939572 treatment of human gastric organoid lines; assay type: cell-based; conditions: 1 μM for human
# [4] = test system: Gif-rtTA; TetO-Cre; Kras^G12D (GCK) mice; assay: In vivo A939572 treatment of GCK mice; conditions: 20 mg/kg intraperitoneal daily for 2 weeks
# Method: All experiments involving mice used in this study followed protocols approved by the Institutional Animal Care and Use Committees of Vanderbilt University Medical Center. Littermates or age-matched mice were randomly allocated to experimental or control groups. Animal weights were recorded at initiation of experiment and at the time of euthanasia. To generate the Gif-rtTA; TetO-Cre; Kras^G12D (GCK) mice, the Gif-rtTA mice were crossed with TetO-Cre mice and Lox-Stop-Lox (LSL)-Kras^G12D mice (no. 006224 and 008179, Jackson Laboratories). For the induction of Cre-mediated recombination, 6-week-old mice were administered with doxycycline water at a concentration of 1 mg/mL for 2 weeks. Mice were sacrificed at 2 to 14 weeks after doxycycline treatment for histological examination. For in vivo A939572 treatment, A939572 (HY-50709; MedChemExpress) was dissolved in dimethyl sulfoxide (DMSO) as a 100 mg/mL stock and stored at −80° C. in aliquots. The A939572 was administered daily for two weeks by intraperitoneal injection (20 mg/kg diluted in corn oil) to mice at 6 weeks after doxycycline treatment. Mice were sacrificed within a day after the last A939572 treatment.
# Mouse tissues were isolated and fixed overnight in 4% paraformaldehyde, embedded in paraffin. Paraffin-embedded sections were sectioned at a thickness of five-micrometer and stained with hematoxylin and eosin (H&E). For immunostaining, unstained paraffin tissue sections were deparaffinized in HistoClear (HS-200, National Diagnostics) and rehydrated through a serial dilution of ethanol. Antigen retrieval was performed in target retrieval solution (S1699 or S2367, Agilent) using a pressure cooker for 15 minutes. Sections were rinsed in dH2O and incubated with Serum-free Protein Block Solution (X0909, Agilent) for 1.5 hours at room temperature (RT). Sections were additionally incubated with Mouse on Mouse Blocking Reagent (MKB-2213-1, Vector Laboratories) for 30 min at RT to block nonspecific staining with primary antibodies generated in mice on mouse tissues. Primary antibodies were diluted in Antibody Diluent (S3022, Agilent) and applied to sections overnight at 4° C.
# For immunofluorescence, paraffin sections were washed with 1×PBS three times and incubated with Alexa-conjugated secondary antibodies (Life Technologies, 1:500) for 1 hour at RT. Sections were washed with 1×PBS three times and incubated with Hoechst 33342 (62249, Thermo Fisher Scientific, 1:5000) for 5 min at RT. The sections were then washed with 1×PBS three times and mounted with Prolong gold anti-fade reagent (P36934, Thermo Fisher Scientific). Images were captured on a Zeiss Axio Imager M2 microscope with Axiovision digital imaging system at 20× magnification. For immunohistochemistry, paraffin sections were washed with 1×PBS three times and incubated with HRP-conjugated secondary antibodies (MP-7402, Vector Laboratories) for 15 min at RT. Sections were washed with 1×PBS three times and incubated with Envision+ Detection System Peroxidase/DAB substrate (Dako). Sections were then washed with dH2O and counterstained Mayer's Hematoxylin (MHS32, Sigma-Aldrich). The sections were dehydrated and mounted with aqueous mounting medium. The sections were scanned on an SCN400 Slide Scanner (Leica Biosystems) at 20× magnification. TUNEL staining was performed using the Click-iT Plus TUNEL assay kit, according to the manufacturer's protocol (C10618, Life Technologies).
# H&E-stained sections were scanned in SCN400 Slide Scanner and analyzed by Aperio ImageScope software (Leica Biosystems). Gland types were classified using the same diagnostic criteria used for human tissue sections. Briefly, the gland representing foveolar hyperplasia without goblet cells and mucous metaplasia at the base was diagnosed as a pyloric metaplastic gland, while intestinal metaplasia was determined by presence of basophilic mucin droplet-containing cells in the foveolar region.
# AGS = assay: EA-DM1 treatment of gastric cancer cell line AGS; assay type: cell-based
# Method: (§2) FIG. 9A-B show cells treated with EA-DM1 (cis-11-eicosenoic acid conjugated to mertansine (DM1)). […] DMSO was used as a vehicle control. […] The NIH-3T3 cell line was used as a negative control, and mouse normal cells and DMSO were used as a vehicle control.
# (§3) To evaluate whether EA-DM1 (cis-11-eicosenoic acid conjugated to mertansine (DM1)) could be internalized and release free DM1 toxin into the cytosol, two different gastric cancer cell lines, AGS and NCI-N87, were treated with EA-DM1 for 2 days (FIG. 9A-B). Gastric cancer cells died within 2 days after the EA-DM1 treatment at 100 nM concentration (FIG. 9A).
# NCI-N87 = assay: EA-DM1 treatment of gastric cancer cell line NCI-N87; assay type: cell-based; conditions: 100 nM
# Method: as §2, §3
# NIH-3T3 cells = assay: EA-DM1 treatment of NIH-3T3 cells (negative control); assay type: cell-based, mouse; conditions: 5 nM, 2 days
# Method: as §2, §3
# dysplastic cells = assay: Subcellular localization of NBD-EA in 2-dimensional monolayer culture; assay type: cell-based, mouse
# Method: Mouse gastric organoids were dissociated into single cells and dissociated cells (5,000 cells/well) were seeded on the collagen-coated 8-well chamber slide (ibidi) in Mouse IntestiCult medium (06005, StemCell Technology) for two days until the cells reach at 50% confluency. The cells were incubated with NBD (Compound A) or NBD-conjugated Eicosenoic acid over time and then stained with 100 nM MitoTracker™ Red CMXRos (M7512, Thermo Fisher Scientific) for 20 min at 37° C. The cells were washed with pre-warmed 1×PBS three times and counterstained with Hoechst for 5 min at RT. Confocal imaging was performed on a Zeiss LSM 880 using 63× magnification.
# [5] = co-treated with 100 nM A939572 for 3 days
compound,measurement,setting,value
"CCCCCCCC/C=C\CCCCCCCCCC(=O)O [EA, cis-11-eicosenoic acid]",organoid structure,dysplastic organoids [1]; [5],not disrupted and showed clear central lumens
same,rescue of dysplastic organoids from SCD inhibition (organoid size),dysplastic organoids [1]; [5],recovered from SCD inhibition and displayed a significant increase in size
"CNC(=O)c1cccc(NC(=O)N2CCC(Oc3ccccc3Cl)CC2)c1 [A939572, 4-(2-chlorophenoxy)-N-(3-(methylcarbamoyl)phenyl)piperidine-1-carboxamide]",response of normal gastric organoids,normal gastric organoids,did not show any significant changes
same,time within which dysplastic organoid growth and survival were impeded,dysplastic organoids [2]; 100 nM A939572,≤ 1 days
same,cell proliferation (Ki-67) in dysplastic organoids,"dysplastic organoids [2]; 100 nM A939572, IF staining",a decrease in cell proliferation
same,cleaved caspase-3 positive apoptotic cells in dysplastic organoids,"dysplastic organoids [2]; 100 nM A939572, IF staining",accumulation of cleaved caspase-3 positive apoptotic cells in the central lumen of dysplastic organoids
same,time within which organoids died after treatment,[3]; organoid lines with dysplastic histology expressing both SCD and Trop2,≤ 6 days
same,response to treatment,"[3]; organoids with low level of SCD, Trop2 negative (metaplastic)",did not respond to the treatment
same,F4/80+CD68+ macrophages,[4],slightly increased only at the base of glands
same,F4/80+CD68- macrophage infiltration,[4],significantly increased in the transitioning and surface areas
same,SPEM cells after treatment,[4],still present at the gland base and not co-positive for cleaved caspase-3 or TUNEL signal
same,"dead cells within the transitioning cell zone (cleaved caspase-3, TUNEL)",[4],significant increase in dead cells
same,effects in other organs,[4]; at 6 weeks after doxycycline,without any effects in other organs
same,gastric mucosa histology (H&E),[4]; at 6 weeks after doxycycline,flattened mucosa and loss of histological characteristics of dysplastic cells in the transitioning and surface areas of glands
"CCCCCCCC/C=C\CCCCCCCCCC(=O)N1CCN(C(=O)CSCCC(=O)N(C)[C@H](C)C(=O)O[C@@H]2CC(=O)N(C)c3cc(cc(OC)c3Cl)C/C(C)=C/C=C/[C@H](OC)[C@]3(O)C[C@@H](OC(=O)N3)[C@H](C)[C@H]3O[C@@]32C)CC1 [EA-DM1, (1^4S,1^6S,3^2S,3^3R,2R,4S,10E,12E,14R)-8^6-chloro-1^4-hydroxy-8^5,14-dimethoxy-3^3,2,7,10-tetramethyl-1^2,6-dioxo-7-aza-1(6,4)-oxazinana-3(2,3)-oxirana-8(1,3)-benzenacyclotetradecaphane-10,12-dien-4-yl N-(3-((2-(4-((Z)-icos-11-enoyl)piperazin-1-yl)-2-oxoethyl)thio)propanoyl)-N-methyl-L-alaninate]",targeting of gastric cancer cells,"AGS; 5 nM, 2 days",effectively targeted gastric cancer cells
same,time within which gastric cancer cells died after treatment,AGS; 100 nM,≤ 2 days
same,time within which gastric cancer cells died after treatment,NCI-N87,≤ 2 days
same,changes in normal mouse fibroblast cells,NIH-3T3 cells,no noticeable changes
"CCCCCC=CCC=CCC=CC/C=C\CCCCCC(=O)O [DA, cis-7,10,13,16-docosatetraenoic acid]",rescue of dysplastic organoids from SCD inhibition (organoid size),dysplastic organoids [1]; [5],did not show any differences compared to the organoids treated only with A939572
C1CCC(C(CC2CCCCN2)C2CCCCC2)CC1 (stereo not drawn) [perhexiline],organoid growth after co-treatment,"dysplastic organoids [1]; A939572, EA and perhexiline 10 μM, 3 days",did not display any significant increase in organoid growth
same,effect of FA oxidation inhibition on rescue by EA,"dysplastic organoids [1]; perhexiline 10 μM with A939572 and EA, 3 days",abolished rescue effects of EA in dysplastic organoids
"CCCCCCCC/C=C\CCCCCCCCCC(=O)Nc1ccc([N+](=O)[O-])c2nonc12 [NBD-EA, NBD-cis-11-Eicosenoic acid (C20:1, n-9)]",NBD fluorescent signal in dysplastic cells,dysplastic cells; 6 h after treatment,not detectable
same,NBD fluorescent signal in dysplastic cells,dysplastic cells; 24 h,strongly accumulated in mitochondria
same,NBD fluorescent signal in dysplastic cells,dysplastic cells; 48 h,weakly maintained
